According to patent US8772335B2, “Adamantyl derivatives as therapeutic agents” (Women & Infants' Hospital of Rhode Island, priority 2011, dated 2014):

Key:
Assay type in all cases: cell-based
[1] = test system: ovarian and endometrial cancer cells; test: MTS viability with ascorbic acid co-treatment (role of ROS)
Description: Cancer cells derived from neuroblastoma (SMSKCNR), ovarian (SKOV-3), prostate (PC-3), endometrial (ECC-1, AN3CA, KLE), breast (MCF-7) and trophoblasts (TCL-1) were seeded (5000-10000 cells/well) in a 96 well plate in complete medium as recommended by ATCC and allowed to adhere overnight. The medium was replaced with fresh complete medium containing ascorbic acid (500 μM) and added various concentrations of AC-AM. The cells were incubated under standard humidified incubator (5% CO2) for 24 hours. The medium was replaced again with 100 μL of complete RPMI medium containing MTS reagent (Cell titre 96 aqueous one solution cell proliferation assay, Promega, Madison, Wis.) and incubated for 1-6 hours until violet farmazon color developed (the optical density of the color was read with an ELISA plate reader at 492 nm wavelength). The OD values of the treatment wells were plotted against vehicle OD set at 100% cell viability using MS excel software.

[2] = test system: SKOV-3 cells; test: Cell cycle progression of SKOV-3 cells (propidium iodide, FACS); set-up: G1 / Apoptosis: unit not given here; conditions: for G1 / G2/M / S / Apoptosis: SKOV-3 cells, 10 μM; for G1 / G2/M / S: cell population distribution by FACS; for Apoptosis: sub-G1 population by FACS
Description: SKOV-3 cells (˜1 million) were seeded in complete DMEM media in 10 cm^2 dishes and allowed to adhere overnight. Media was removed and supplemented with AMITC and AC-AM (10 μM) or vehicle and cells were harvested at 4, 12, 18, 32, and 48 hours. The cells were washed and fixed with cold 70% ethanol/H2O. After 1 hour, ethanol was removed and 500 μL of propidinium iodide (PI) (1 mg/10 mL) was added to each tube containing cells. The distribution of the cell population in various phases of cell-cycle was analyzed using FACS. 10,000 events were chosen from each sample.

[3] = test system: immortalized TCL-1 trophoblasts; test: MTS cell viability, immortalized trophoblasts (control cells); conditions: drug concentrations of 40 μM
Description: Cancer cells derived from neuroblastoma (SMSKCNR), ovarian (SKOV-3), prostate (PC-3), cervical (HeLa), skin (a431), immortalized lung fibroblasts (MRCS) and immortalized trophoblasts (TCL-1) were seeded (5000-10000) in a 96 well plate in complete medium as recommended by ATCC and allowed to adhere overnight. Medium was replaced with fresh complete medium containing various concentrations of compound (2) and (3). The cells were incubated under standard humidified incubator (5% CO2) for 48 hours. The medium was replaced again with 100 μL of complete RPMI medium containing MTS reagent (Cell titre 96 aqueous one solution cell proliferation assay, Promega, Madison, Wis.) and incubated for 1-6 hours until violet farmazon color developed (the optical density (OD) of the color was read with an ELISA plate reader at 492 nm wavelength). The OD values of the treatment wells were plotted against vehicle OD as 100% cell viablity using MS excel software.
Cancer cells derived from neuroblastoma (SMSKCNR), ovarian (SKOV-3), prostate (PC-3), endometrial (ECC-1, AN3CA, KLE), breast (MCF-7) and trophoblasts (TCL-1) were seeded (5000-10000 cells/well) in a 96 well plate in complete medium as recommended by ATCC and allowed to adhere overnight. The medium was replaced with fresh complete medium containing ascorbic acid (500 μM) and added various concentrations of AC-AM. […]

SMILES	G1 ([2]; 4 hr)	G2/M ([2]; 4 hr)	S ([2]; 4 hr)	Apoptosis ([2]; 4 hr)	G1 ([2]; 12 hr)	G2/M ([2]; 12 hr)	S ([2]; 12 hr)	Apoptosis ([2]; 12 hr)	G1 ([2]; 18 hr)	G2/M ([2]; 18 hr)	S ([2]; 18 hr)	Apoptosis ([2]; 18 hr)	G1 ([2]; 32 hr)	G2/M ([2]; 32 hr)	S ([2]; 32 hr)	Apoptosis ([2]; 32 hr)	G1 ([2]; 48 hr)	G2/M ([2]; 48 hr)	S ([2]; 48 hr)	Apoptosis ([2]; 48 hr)	also measured
CC(=O)NC(CSC(=S)NCC12CC3CC(CC(C3)C1)C2)C(=O)O (stereo not shown) [AC-AM]	63	10.40	25.70	4.81	45.15	27.17	27.67	7.73	37.37	30.85	31.78	13.33	37.78	28.89	33.34	16.29	48.48	17.90	33.62	16.62	effect of antioxidant ascorbic acid on cytotoxicity [1]: blocked
S=C=NCC12CC3CC(CC(C3)C1)C2 [AMITC, adamantyl methyl isothiocyanate]	63	11	25.30	7.24	46.18	26.06	27.27	8.52	39.19	29.13	31.32	14.83	48	20.12	31.86	16.07	43	37.44	19.36	19.46	viability of immortalized TCL-1 trophoblasts [3]: not significantly affected; effect on cell cycle phases (in words) ([2]; SKOV-3 ovarian cancer cells): arrest ovarian cancer cells in G2/M phase
